SMILES strings stand for the structures. Several values for one entry are separate records, joined by “and”; a condition that tells them apart may be missing. Equal values may be shown once.

In one experiment the target is T1, His-NS5BΔ21 polymerase (Hepatitis C virus genotype 1b, UniProt P26663).
T1 construct: a variant that lacks the C-terminal 21 amino acids normally found on the mature NS5B; hexa-histidine (N); made in house; host or cells: E. coli JM109 (DE3), pET vector
The experiment can be described thus: Fluorescence anisotropy/polarization titration of probe with His-NS5BΔ21. Type of experiment: binding, HCV. The following applies: Kd of probe for N-terminally tagged His-NS5BΔ21, standard conditions. The method, then:
The fluorescein labeled probe was diluted to the desired concentration in 20 mM Tris-HCl pH 7.5, 1 mM EDTA, 5 mM MgCl2, 1 mM DTT and 10% DMSO. The NS5BΔ21-His protein was serially diluted in 25 mM Tris-HCl pH 7.5, 300 mM NaCl, 5 mM DTT, 1 mM EDTA, 30% glycerol and 0.1% IGEPAL. Total volume of the reaction was 500 μL and final assay buffer was 20 mM Tris-HCl pH 7.5, 1 mM EDTA, 5 mM MgCl2, 1 mM DTT, 30 mM NaCl, 3% glycerol, 0.01% IGEPAL and 5% DMSO. Anisotropy measurements were performed on a SLM Aminco 8100 Spectrofluorometer equipped with a 450-W xenon arc lamp and a T-optics configuration. Excitation wavelength was at 493 nm and emission was monitored at 530 nm. In each anisotropy measurement, the parallel and perpendicular intensities of the background buffer solution was subtracted from the measured values of the sample and the anisotropy was calculated. […]
To obtain Kd values of different compounds competing with these probes (test compounds), this assay was transformed to a more amenable format and a binding assay was made suitable for a 96-well microplate reader. […] The NS5BΔ21-His concentration in the assay was calculated to obtain 70% of binding of the probe; these conditions allowed for the displacement of the probe by test compounds. […]
The Fluorescence polarization assay was also used with other constructs of our HCV polymerase enzyme. […]
Background: Fluorescence polarisation rises when a labelled molecule tumbles more slowly, as on binding a larger partner.

A further experiment concerns the target T2, NS5BΔ21-His polymerase (Hepatitis C virus genotype 1b, UniProt P26663).
T2 construct: a variant that lacks the C-terminal 21 amino acids normally found on the mature NS5B; hexa-histidine (C); made in house; host or cells: E. coli JM109 (DE3), pET vector
In words: Fluorescence anisotropy titration of probe with NS5BΔ21-His. The following applies: Kd of probe for NS5BΔ21-His. The format is binding, HCV. The method, then:
Titration of the probe with the enzyme was performed as follows:
(§1) The fluorescein labeled probe was diluted to the desired concentration in 20 mM Tris-HCl pH 7.5, 1 mM EDTA, 5 mM MgCl2, 1 mM DTT and 10% DMSO. The NS5BΔ21-His protein was serially diluted in 25 mM Tris-HCl pH 7.5, 300 mM NaCl, 5 mM DTT, 1 mM EDTA, 30% glycerol and 0.1% IGEPAL. Total volume of the reaction was 500 μL and final assay buffer was 20 mM Tris-HCl pH 7.5, 1 mM EDTA, 5 mM MgCl2, 1 mM DTT, 30 mM NaCl, 3% glycerol, 0.01% IGEPAL and 5% DMSO. Anisotropy measurements were performed on a SLM Aminco 8100 Spectrofluorometer equipped with a 450-W xenon arc lamp and a T-optics configuration. Excitation wavelength was at 493 nm and emission was monitored at 530 nm. In each anisotropy measurement, the parallel and perpendicular intensities of the background buffer solution was subtracted from the measured values of the sample and the anisotropy was calculated. Data were processed on SAS program (SAS Institute Inc., NC, USA) for a non linear regression to obtain the direct binding equilibrium constant and other parameters, and the plot of the regressed fit over the experimental data. An example of a titration curve obtained with probe (i) is shown on FIG. 1.
The usefulness of this polarization assay is evident when binding of compounds has to be studied under different conditions. For example, binding constants of the probes have been determined at different concentrations of salts and pH. FIGS. 5 to 8 show the binding curves of probe (i) in final NaCl concentrations ranging from 30 mM to 200 mM. […] All other reagents in the assay were as described in the standard protocol (Example 3). […] Studies at pH 6.5 were also performed to determine the Kd of the probe (i) at lower pH. For these assays, 20 mM Phosphate buffer pH 6.5 was used in place of Tris; all other reagents of the assay were as described in the 96-well Polarization assay (Example 4). […] Having established these Kd values under different experimental conditions, it is then trivial to determine what concentrations of probe and enzyme should be used to obtain 70% of binding of the probe with the equilibrium equation. Once these values are obtained, compounds of interest can easily be studied under the new conditions to determine their Kd values.

For experiment [1], the target named is T3, His-NS5BΔ21(H77c, HCV genotype 1a) polymerase (Hepatitis C virus genotype 1a, UniProt P27958).
T3 construct: The HCV genotype 1a NS5B polymerase [termed His-NS5BΔ21 (H77c, 1a); 4]; His tag (N); made in house; host or cells: E. coli JM109 (DE3), pET vector
The experiment can be described thus: Fluorescence anisotropy titration of probe with HCV genotype 1a polymerase. The format is binding. The following applies: Kd of probe for HCV genotype 1a polymerase, standard conditions of Example 3. Here is the method:
as §1, with “data.” for “data. An example of a titration curve obtained with probe (i) is shown on FIG. 1.”
(§2) The GBV-B and the HCV 1a polymerases were used to titrate probe ii, using the protocol described in Example 3. […] Kd values for a series of compounds were determined with these two HCV (genotypes 1a and 1b) polymerases, using the assay format described in Example 4.

In another experiment the target is T4, GBV-BΔ23-His polymerase (Hepatitis GB virus B, UniProt Q69422).
T4 construct: The GBV-B polymerase enzyme (termed GBV-BΔ23-His; 3); His tag (C); made in house; host or cells: E. coli JM109 (DE3), pET vector
The experiment can be described thus: Fluorescence anisotropy titration of probe with GBV-B polymerase. Type of experiment: binding. Here is the method: as §1, with “An example of a titration curve obtained with probe (i) is shown on FIG. 1.” left out
as §2

Where [2] appears, read: standard conditions of Example 3 (Tris-HCl pH 7.5, 30 mM NaCl).

With `O=C(O)COc1ccc2[nH]cc(C[C@H](NC(=O)c3ccc4c(c3)nc(-c3ccc(C(=O)NCCNC(=S)Nc5ccc(-c6c7ccc(=O)cc-7oc7cc(O)ccc67)c(C(=O)O)c5)cc3)n4C3CCCCC3)C(=O)O)c2c1` [probe (i), 5-[3-(2-{[1-(4-{5-[(S)-1-Carboxy-2-(5-carboxymethoxy-1-H-indol-3-yl)-ethylcarbamoyl]-1-cyclohexyl-1H-benzimidazol-2-yl}-phenyl)-methanoyl]-amino}-ethyl)-thioureido]-2-(6-hydroxy-3-oxo-3H-xanthen-9-yl)-benzoic acid], the Kd (usually the free concentration of one partner at which half of the binding sites on the other are occupied at equilibrium, for simple one-to-one binding) on His-NS5BΔ21 polymerase was 18 nM and 18.1 nM; on NS5BΔ21-His polymerase (20 mM Phosphate buffer pH 6.5 in place of Tris) it was 33 nM; on NS5BΔ21-His polymerase (30 mM NaCl), 15 nM and 15.3 nM; on NS5BΔ21-His polymerase (100 mM NaCl) it was 39 nM; at NS5BΔ21-His polymerase (150 mM NaCl), 78 nM; on NS5BΔ21-His polymerase (200 mM NaCl), 122 nM. On NS5BΔ21-His polymerase (setting [2]), the Kd was 15 nM and 12.6 nM.

Regarding `O=C(O)COc1ccc2[nH]cc(C[C@H](NC(=O)c3ccc4c(c3)nc(-c3ccc(OCC(=O)NCCNC(=S)Nc5ccc(-c6c7ccc(=O)cc-7oc7cc(O)ccc67)c(C(=O)O)c5)cc3)n4C3CCCCC3)C(=O)O)c2c1` [probe (ii), 5-(3-{2-[2-(4-{5-[(S)-1-Carboxy-2-(5-carboxymethoxy-1-H-indol-3-yl)-ethylcarbamoyl]-1-cyclohexyl-1H-benzimidazol-2-yl}-phenoxy)-ethanoylamino]-ethyl}-thioureido)-2-(6-hydroxy-3-oxo-3H-xanthen-9-yl)-benzoic acid], the Kd in experiment [1] is 18 nM and 18.2 nM; at NS5BΔ21-His polymerase (setting [2]), 6 nM; on GBV-BΔ23-His polymerase (Kd of probe for GBV-BΔ23-His polymerase, estimated value with an incomplete curve), 1800 nM and 1790 nM. Also, on GBV-BΔ23-His polymerase (fold higher Kd, specificity), the “Kd with GBV-B polymerase relative to HCV polymerases” value was “at least 100 fold”.

Values taken from patent US7294457B2, “Direct binding assay for identifying inhibitors of HCV polymerase” (priority 2001, dated 2007).
